Laboratory results taken from US20120082736A1, “Small-molecule TNF modulator to reduce the side effects of chemotherapy and radiotherapy” (GeneBlue Corporation, priority 2010, published 2012).

Assays:
[1] = test system: BDF1 female mice treated with cisplatin; test: Effect of pretreatment on BUN/creatinine, AST/ALT, WBC/platelet in blood of cisplatin-treated mice (Example 2); format: in vivo; conditions: blood day 6; for platelet count, effect of pretreatment: vs Gp 1 (Control)
Protocol: Gp 1: medium (saline). Gp 2: saline followed by cisplatin (2.5 mg/kg) 30 min later. Gp 3: UTL-5g (15 mg/kg) followed by cisplatin (2.5 mg/kg) 30 min later. Gp 4: UTL-5g (30 mg/kg) followed by cisplatin (2.5 mg/kg) 30 min later. Gp 5: UTL-5g (60 mg/kg) followed by cisplatin (2.5 mg/kg) 30 min later. Gp 6: amifostine (200 mg/kg) followed by cisplatin (2.5 mg/kg) 30 min later; Gp 7: saline followed by cisplatin (5 mg/kg) 30 min later. Gp 1-Gp 6 were daily ×5, but Gp 7 was by single dose on day 0 only. StDev is shown for each Gp (n=5 for each group except for Gp 7, n=3). ** two-tailed p<0.005 vs medium control by Student's t-test.
(§1) Gp 1: medium (saline). Gp 2: saline followed by cisplatin (2.5 mg/kg) 30 min later. Gp 3: UTL-5g (15 mg/kg) followed by cisplatin 30 min later. Gp 4: UTL-5g (30 mg/kg) followed by cisplatin (2.5 mg/kg) 30 min later. Gp 5: UTL-5g (60 mg/kg) followed by cisplatin (2.5 mg/kg) 30 min later. Gp 6: amifostine (200 mg/kg) followed by cisplatin (2.5 mg/kg) 30 min later. Gp 7: saline followed by cisplatin (5 mg/kg) 30 min later. Gp 1-Gp 6 were daily ×5, but Gp 7 was by single dose on day 0 only. StDev is shown for each Gp (n=5 for each group except n=4 for Gp 7). * P<0.05, ** p<0.005 vs. medium control (Gp 1) by Student's t-test (two-tailed).
as §1, with “p<0.005, *** p<0.0005” for “p<0.005”, “control” for “control (Gp 1)”
BDF1 female mice (average wt ˜20 g/mouse) were randomly divided into the following groups (5 mice per group) and each treated daily ×5 (starting from day 0) by ip injection (0.25 mL/mouse), except in Gp 7, each was treated by a single dose ip injection (0.25 mL/mouse) on day 0 only, as described below • Gp 1: medium (saline) followed by medium (saline) 30 min later • Gp 2: medium (saline) followed by cisplatin (2.5 mg/kg) 30 min later • Gp 3: UTL-5g (15 mg/kg) followed by cisplatin (2.5 mg/kg) 30 min later • Gp 4: UTL-5g (30 mg/kg) followed by cisplatin (2.5 mg/kg) 30 min later • Gp 5: UTL-5g (60 mg/kg) followed by cisplatin (2.5 mg/kg) 30 min later • Gp 6: amifostine (200 mg/kg) followed by cisplatin (2.5 mg/kg) 30 min later • Gp 7: medium (saline) followed by cisplatin (5 mg/kg) 30 min later (single dose on Day 0 only)
Preparation of the test samples are described below: • Cisplatin: Cisplatin was dissolved in saline (0.2 and 0.4 mg/mL in saline) for 2.5 and 5 mg/kg ip injection. • UTL-5g: The stock solution of UTL-5g was first dissolved in DMSO and equal volume of Cremophor/propylene glycol (60/40 v/v) was added to make a stock solution. Immediately before the injection, saline was added to this temporary solution at a 90:10 v/v ratio and mixed thoroughly. Three concentrations for ip injection were prepared (1.25, 2.5, and 5 mg/mL) so that the doses are equivalent to 15, 30, and 60 mg/kg with a 0.25 mL injection. • Amifostine: The stock solution of amifostine was dissolved in saline to the desired concentration (16 mg/mL) for the 200 mg/kg injection.
Cardiac puncture was used to obtain blood from each mouse on day 6. To assess liver/kidney protection by UTL-5g, all blood samples were analyzed for BUN, creatinine, AST, and ALT by the chemistry lab at Henry Ford Health System. Unopette® (Becton Dickinson, Franklin Lakes, N.J.) diluting systems and a hemocytometer were used to assess the effect of UTL-5g on WBC and platelet counts in blood.

[2] = within 1 h, cited from earlier work
tumor cells = conditions: animal data; cited from earlier work
BDF1 mice = test: Cisplatin side-effect time course / MTD, ip daily ×5 (Example 1); format: in vivo; conditions: ip daily ×5, BDF1 mice
Protocol: First, 0.25 mL of 0.2 mg/mL cisplatin (eq to 2.5 mg/kg) in saline was injected ip, daily ×5, in BDF1 mice. Saline was used as a control. Two mice were used per group and sacrificed on day 0 (control), 2, 4, 7, 9, 11, and 15. In addition, 2 BDF1 mice were injected with a higher dose, 0.25 mL of 0.4 mg/mL cisplatin (eq to 5 mg/kg), daily ×5. Unfortunately, for the higher dose, 1 mouse died on day 7 and the second was euthanized on day 14. This confirms the MTD of cisplatin was <5 mg/kg by ip daily ×5 as shown in the MTD study.
To further narrow down the exact day between day 4 and 7, a follow-up animal study was conducted employing cisplatin at 2.5 mg/kg and the mice were sacrificed on day 0 (control), 5, 6, and 7 (2 mice per point).

TNF-α = TNF-α levels in plasma of cisplatin-treated mice (commercial assay kit, eBioscience); format: in vivo; conditions: cisplatin 2.5 mg/kg ip daily ×5; pooled plasma day 6
Protocol: FIG. 5. Effect of UTL-5g on TNF-α levels in plasma for mice treated with cisplatin. Gp 1, medium control (saline) only; Gp 2, saline followed by cisplatin (2.5 mg/kg) 30 min later; Gp 3, UTL-5g (15 mg/kg) followed by cisplatin 30 min later; Gp 4, UTL-5g (30 mg/kg) followed by cisplatin 30 min later; Gp 5, UTL-5g (60 mg/kg) followed by cisplatin 30 min later. Y axis represents the relative levels of TNF-α assuming 0% for Gp 1 (Control). Level of TNF-α on the figure is based on the average of 2 readings. […]
Using the samples from the same animal study, TNF-α levels in plasma were analyzed. […]

[3] = ip 30 min before cisplatin 2.5 mg/kg, daily ×5, UTL-5g 15, 30, 60 mg/kg, amifostine 200 mg/kg
[4] = cisplatin 2.5 mg/kg ip daily ×5 or 5 mg/kg single dose
[5] = cisplatin 5 mg/kg ip single dose day 0 (Gp 7) vs Control (Gp 1)

| SMILES | BUN levels, effect of pretreatment [1, 3] | creatinine, effect of pretreatment [1, 3] | platelet count, effect of pretreatment [1, 3] | platelet count, effect of pretreatment ([1]; ip 30 min before cisplatin 2.5 mg/kg, daily ×5, UTL-5g 15, 30, 60 mg/kg, amifostine 200 mg/kg, listed as Amifostine) | cleared from the plasma, share of the peak concentration ([2]; amifostine) [%] | metabolite cleared from the plasma, share of the peak concentration ([2]; metabolite of amifostine) [%] | tumor-protective effect (tumor cells) | MTD of cisplatin (BDF1 mice) [mg/kg] | ALT levels, effect of cisplatin [1, 4] | AST levels, effect of cisplatin [1, 4] | BUN levels, effect of cisplatin [1, 4] | creatinine, effect of cisplatin [1, 4] | WBC count, effect of cisplatin [1, 5] | platelet count, effect of cisplatin [1, 5] | TNF-α in plasma, effect of cisplatin (TNF-α) |
| --- | --- | --- | --- | --- | --- | --- | --- | --- | --- | --- | --- | --- | --- | --- | --- |
| NCCCNCCSP(=O)(O)O [amifostine, reference compound] | essentially the same reduction | Essentially the same results | statistically significant decrease on platelet count | does not have similar positive effect on platelet production | 95 | 50 | may have tumor-protective effect |  |  |  |  |  |  |  |  |
| N.N.[Cl][Pt][Cl] [cisplatin, cis-dichlorodiammine platinum, reference compound] |  |  |  |  |  |  |  | < 5 | elevated by cisplatin | elevated by cisplatin | elevated by cisplatin in a dose-dependent manner | Essentially the same results | lower WBC count as compared to Control | did decrease platelet count significantly | elevated by cisplatin |
